Data reported in US10351566B2, “Therapeutic compounds for pain and synthesis thereof” (priority 2015, dated 2019).
Like-named read-outs stand apart in the source and are kept apart here.

Columns and labels:
[1] = Tolerability / repeated dosing safety in mice; format: in vivo; conditions: for Findings: Mice
Description: The tolerability of Formula 1 was evaluated in mice and rats.

[2] = format: in vivo, mice; conditions: Brain, SC, Mean
[3] = format: in vitro ADME, mouse, rat, human
Description: Metabolic stability studies in mouse, rat and human liver microsomes were performed at a compound concentration of 1 μM.
A total of five metabolites were detected in all three species. […] Due to the similarity in the plasma stability of the compound in the mouse and the human plasma, and toxicology studies would preferably be performed in the mouse.

[4] = in vivo; parameters: species or system mice; conditions: for HL_Lambda_z / Cl_F_obs / Vz_F_obs / AUC(0-t) / Cmax / Tmax / AUC(0-inf): Mean; for Kp / AUC(0-t) / Cmax / Tmax / AUC(0-inf): mouse, in vivo; for Kp: po, 50 mg/kg, mice, oral 50 mg/kg, 5 min to 8 h; for AUC(0-inf): read-out: AUCINF_obs
Description: Tissue distribution studies were conducted by administration of the compound to mice at a dose of 50 mg/kg orally and intravenously. Plasma and tissue samples were collected at various times from 5 min to 8 h. The tissue-to-plasma concentration ratios measured after oral dosing were: 0.6 (range: 0.3-1.1, brain), 3.2 (range: 1.9-5.0, spinal cord), 6.5 (range: 0.9-10.3, liver), 24.0 (range: 5.1-59.9, lung), 6.6 (range: 1.2-14.9, heart), 16.9 (range: 4.3-26.8, kidney), 77.5 (range: 11.5-341, spleen), 29.2 (range: 6.3-50.2, cecum), 67.4 (range: 11.6-326, colon), 5.2 (range: 2.1-8.0, testes). The concentration-time profiles of the compound in these tissues generally followed those in plasma. The tissue-to-plasma concentration ratios in these selected tissues are generally within the normal ranges of the marketed drugs.
There are complex equilibria between the compound concentrations in blood, CSF and spinal cord. A high concentration in the CSF would yield a large concentration in the spinal cord. Since Formula 1 is a Pgp substrate and highly tissue-bound, its higher concentrations in the spinal cord tissue compared to the brain tissue are not surprising (Table 2).

[5] = in vivo
Description: Formula 1 was discovered following a comprehensive Senerga® Phenotypic screening.

[6] = format: in vivo; conditions: mice, 10 mg/kg IP
Description: Mice received a 10 mg/kg IP dose of Formula 1. The animals were placed in the open field apparatus after 30 minutes (box of 0.5×0.5×0.5 m length, width and height) for a period of 5 min. The animals' walking distance and speed were evaluated and compared to the vehicle-treated group.

[7] = format: in vivo; conditions: naïve rats, dosing for 7 days
Description: At 4 days, vehicle-treated animals gained approximately 1% body weight, going from 25.24±0.74 g to 25.50±0.64 g. Formula 1 treated animals went from 25.28±1.04 g to 25.82±1.25 g.

[8] = target: CYP3A4 (Homo sapiens, UniProt P08684); assay: Reversible CYP450 inhibition, cocktail format; format: biochemical; conditions: preliminary
Description: (§1) Preliminary in vitro studies on reversible inhibition of major CYP450 enzymes were conducted in a cocktail format for this compound. The IC50 values were 4 μM for CYP2C9, 5 μM for CYP2C19, and greater than 10 μM for CYP3A4, 2C8, 2D6, and 1A2. If total plasma concentrations in humans are less than 0.4 μM, then in vivo drug interaction studies in clinical trials may not be required for this compound.

[9] = target: T1, CYP2C8 (Homo sapiens, UniProt P10632); assay: Reversible CYP450 inhibition, cocktail format; format: biochemical; conditions: 2C8, reversible inhibition, preliminary
T1 sequence (P10632 1-490): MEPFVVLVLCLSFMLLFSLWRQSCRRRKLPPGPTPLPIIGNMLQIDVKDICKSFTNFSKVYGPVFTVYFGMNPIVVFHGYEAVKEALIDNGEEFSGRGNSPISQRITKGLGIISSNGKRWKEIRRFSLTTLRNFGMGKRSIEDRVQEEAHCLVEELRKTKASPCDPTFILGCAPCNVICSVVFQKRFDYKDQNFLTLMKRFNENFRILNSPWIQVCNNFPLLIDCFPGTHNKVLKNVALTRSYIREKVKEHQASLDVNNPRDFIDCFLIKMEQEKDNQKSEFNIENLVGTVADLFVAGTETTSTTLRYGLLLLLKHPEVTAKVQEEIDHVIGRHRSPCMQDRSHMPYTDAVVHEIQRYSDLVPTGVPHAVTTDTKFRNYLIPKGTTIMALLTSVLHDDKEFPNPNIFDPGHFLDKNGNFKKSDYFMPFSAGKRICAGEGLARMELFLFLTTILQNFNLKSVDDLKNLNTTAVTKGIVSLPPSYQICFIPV
Description: as §1

[10] = Brain, second block of the table, route not given
[11] = Plasma, second block of the table, route not given
[12] = Spinal Cord, second block of the table, route not given
[13] = 30 minutes after dosing, 5 min in open field

CYP3A4, sequence (P08684 whole entry): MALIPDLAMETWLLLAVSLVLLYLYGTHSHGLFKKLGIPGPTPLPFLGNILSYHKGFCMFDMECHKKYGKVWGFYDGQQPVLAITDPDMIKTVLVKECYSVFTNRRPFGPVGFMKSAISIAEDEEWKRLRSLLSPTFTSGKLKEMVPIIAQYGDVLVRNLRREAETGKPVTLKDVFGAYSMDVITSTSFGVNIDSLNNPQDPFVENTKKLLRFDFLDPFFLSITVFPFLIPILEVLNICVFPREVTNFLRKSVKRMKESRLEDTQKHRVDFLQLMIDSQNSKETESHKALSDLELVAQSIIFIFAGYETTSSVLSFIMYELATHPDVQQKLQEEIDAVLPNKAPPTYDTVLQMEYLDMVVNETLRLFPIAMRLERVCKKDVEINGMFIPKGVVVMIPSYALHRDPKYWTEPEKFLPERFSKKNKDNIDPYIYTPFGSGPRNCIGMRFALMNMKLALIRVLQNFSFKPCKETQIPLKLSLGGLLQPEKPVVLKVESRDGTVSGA

Compound: CC(C)(C)C(=O)O[C@@H]1[C@@H]2[C@H]3C[C@H](C[C@@H]1N3Cc1ccccn1)CN2C(=O)CC(F)(F)F (relative stereo) [Formula 1, (2S*,3S*,3aS*,6R*,7aR*)-1-(pyridin-2-ylmethyl)-4-(3,3,3-trifluoropropanoyl)octahydro-1H-2,6-methanopyrrolo[3,2-b]pyridin-3-yl pivalate]
- Findings ([1]; IP, 10 mg/kg, 31 days): NPF
- Findings ([1]; IP, 30 mg/kg, 5 days): NPF
- Findings ([1]; PO, 50 mg/kg, 5 days): NPF
- Findings ([1]; SC, 60 mg/kg, 5 days): NPF
- tolerability ([1]; mice, 5 days intraperitoneal dosing at 30 mg/kg): well tolerated
- tolerability ([1]; mice, 5 days oral dosing at 50 mg/kg): well tolerated
- tolerability ([1]; mice, 5 days subcutaneous dosing at 60 mg/kg): well tolerated
- tolerability ([1]; mouse, single dose of 100 mg/kg): tolerated
- HL_Lambda_z [2]: 0.39 h
- unique human metabolites [3]: No unique human metabolites were detected
- total metabolites detected ([3]; in all three species): five
- major metabolic pathways ([3]; mouse, rat and human liver microsomes): N-dealkylation and oxidation
- HL_Lambda_z [4, 10]: 0.74 h
- Cl_F_obs ([4]; Plasma, SC): 120.292 mL/min/kg
- HL_Lambda_z ([4]; Plasma, SC): 0.37 h
- Vz_F_obs ([4]; Plasma, SC): 3.84783 L/kg
- Cl_F_obs [4, 11]: 672.2167 mL/min/kg
- HL_Lambda_z [4, 11]: 1.20 h
- Vz_F_obs [4, 11]: 72.1615 L/kg
- HL_Lambda_z ([4]; Spinal Cord, SC): 0.53 h
- HL_Lambda_z [4, 12]: 1.56 h
- Kp ([4]; male, read-out: tissue-to-plasma concentration ratio, testes): 5.2
- Kp ([4]; male, read-out: tissue-to-plasma concentration ratio, testes, range): 2.1 to 8
- AUC(0-t) [4, 10]: 2770 ng·h/mL
- Cmax [4, 10]: 6750 ng/mL
- Tmax [4, 10]: 4.8 min
- AUC(0-t) [4, 11]: 2590 ng·h/mL
- Cmax [4, 11]: 3080 ng/mL
- AUC(0-inf) [4, 11]: 2610 ng·h/mL
- AUC(0-t) [4, 12]: 15500 ng·h/mL
- Cmax [4, 12]: 30000 ng/mL
- Kp ([4]; read-out: tissue-to-plasma concentration ratio, brain): 0.6
- Kp ([4]; read-out: tissue-to-plasma concentration ratio, brain, range): 0.3 to 1.1
- Kp ([4]; read-out: tissue-to-plasma concentration ratio, cecum): 29.2
- Kp ([4]; read-out: tissue-to-plasma concentration ratio, cecum, range): 6.3 to 50.2
- Kp ([4]; read-out: tissue-to-plasma concentration ratio, colon): 67.4
- Kp ([4]; read-out: tissue-to-plasma concentration ratio, colon, range): 11.6 to 326
- Kp ([4]; read-out: tissue-to-plasma concentration ratio, heart): 6.6
- Kp ([4]; read-out: tissue-to-plasma concentration ratio, heart, range): 1.2 to 14.9
- Kp ([4]; read-out: tissue-to-plasma concentration ratio, kidney): 16.9
- Kp ([4]; read-out: tissue-to-plasma concentration ratio, kidney, range): 4.3 to 26.8
- Kp ([4]; read-out: tissue-to-plasma concentration ratio, liver): 6.5
- Kp ([4]; read-out: tissue-to-plasma concentration ratio, liver, range): 0.9 to 10.3
- Kp ([4]; read-out: tissue-to-plasma concentration ratio, lung): 24
- Kp ([4]; read-out: tissue-to-plasma concentration ratio, lung, range): 5.1 to 59.9
- Kp ([4]; read-out: tissue-to-plasma concentration ratio, spinal cord): 3.2
- Kp ([4]; read-out: tissue-to-plasma concentration ratio, spinal cord, range): 1.9 to 5
- Kp ([4]; read-out: tissue-to-plasma concentration ratio, spleen): 77.5
- Kp ([4]; read-out: tissue-to-plasma concentration ratio, spleen, range): 11.5 to 341
- AUC(0-t) ([4]; sc, Brain): 790 ng·h/mL
- Cmax ([4]; sc, Brain): 1380 ng/mL
- AUC(0-t) ([4]; sc, Plasma): 1380 ng·h/mL
- Cmax ([4]; sc, Plasma): 1900 ng/mL
- AUC(0-t) ([4]; sc, Spinal Cord): 6210 ng·h/mL
- Cmax ([4]; sc, Spinal Cord): 11900 ng/mL
- Tmax ([4]; Plasma, SC): 15 min
- AUC(0-inf) ([4]; Plasma, SC): 1390 ng·h/mL
- activity in pain-related models [5]: showed activity in pain-related models
- effect on blood pressure [5]: no effect on blood pressure
- effect on bodyweight or food consumption [5]: no effect on bodyweight or food consumption
- effect on specific CNS-related tests [5]: no effect on specific CNS-related tests
- effect on swelling [5]: not effective on swelling
- post-mortem finding [5]: no post-mortem finding
- withdrawal threshold of naïve animals [5]: without affecting the withdrawal threshold of naïve animals
- walking distance and speed vs. vehicle-treated group [6]: No difference was found
- Distance [6, 13]: 1.94 ± 0.89 m
- Time spent in the center of the field [6, 13]: 34.82 ± 23.53 s
- effect on body weight gain [7]: did not affect body weight gain
- IC50 [8]: > 10 µM
- IC50 [9]: > 10 µM
